Assay results reported in US20240398808A1, “DIHYDROFOLATE FOR HYPOGLYCEMIC ACTIVITY” (COUNCIL OF SCIENTIFIC AND INDUSTRIAL RESEARCH an india …, priority 2023, published 2024).
Marks after values point to notes of the source that are not given here.

What was measured:
[1] = tested on: rat liver homogenate; test: In vitro glucose assay using rat liver homogenate; format: biochemical; conditions: 100 μM glucose, 25 μM or 50 μM folates, 37° C., 1 hour
Method: The glucose concentration was determined after incubation at 37° C. for 1 hour.
(A) Folates at a concentration of 25 μM. (B) Folates at 50 μM. Control represents glucose concentration without folate treatment which is considered to be 100%. The results are presented as mean±SD (n=3), and the significance of the values was analyzed by one-way ANOVA followed by Tukey's test (p<0.05). *p<0.05, **p<0.01, […], ***p<0.0001.

[2] = tested on: diabetic Wistar rats; test: Oral glucose tolerance test (OGTT) in diabetic Wistar rats; format: in vivo; conditions: for whole blood glucose values from baseline: 0-120 min
Method: Fasting blood sugar concentration was estimated.
Oral glucose tolerance test (OGTT). The test was performed by oral administration of glucose (2 g/kg body wt). Graph showing blood glucose concentration before (0 min) and 30, 60, 90, and 120 min after administration. Data are shown as the mean±SEM (n=6).

[3] = tested on: diabetic Wistar rats; test: Organ weight after long-term oral administration in diabetic Wistar rats; format: in vivo; parameters: unit not given here; conditions: mean±SD (n=6)
Method: The results are presented as mean±SD (n=6), and the significance of the values was analyzed by one-way ANOVA followed by Tukey's test (p<0.05). *p<0.05, **p<0.01, ***p<0.001, ****p<0.0001.

[4] = tested on: diabetic Wistar rats; test: Organ histology (islets of the pancreas) in diabetic Wistar rats; format: in vivo; conditions: long-term oral administration
[5] = 400 μg folate vs equimolar amounts, after 8 weeks of treatment; cited from earlier work

SMILES	glucose concentration upon treatment [1]	whole blood glucose values from baseline ([2]; OGTT)	Organ weight, Adipose [3]	Organ weight, Cecum matter [3]	Organ weight, Heart [3]	Organ weight, Kidney [3]	Organ weight, Liver [3]	Organ weight, Lungs [3]	Organ weight, Spleen [3]	Organ weight, Testes [3]	histology of islets of the pancreas / beta cells [4]	serum folate concentrations compared to the folate group [5]	time at which decline in whole blood glucose leveled off ([2]; OGTT)	Organ weight, Brain [3]	glucose tolerance ([2]; oral glucose 2 g/kg body wt)
Nc1nc(=O)c2nc(CNc3ccc(C(=O)N[C@@H](CCC(=O)O)C(=O)O)cc3)cnc2[nH]1 [synthetic folate]	no effect	did not show much declaim	0.87 ± 0.60****	6.46 ± 1.49	0.68 ± 0.07	2.12 ± 0.46	7.35 ± 1.02	1.46 ± 0.38	0.66 ± 0.08	2.57 ± 0.95	Moderate atrophy of islets of the pancreas with apoptosis of beta cells	–	–	–	–
CN1c2c(nc(N)[nH]c2=O)NC[C@H]1CNc1ccc(C(=O)N[C@@H](CCC(=O)O)C(=O)O)cc1 [[6R,S]-5-methyltetrahydrofolate]	–	–	–	–	–	–	–	–	–	–	–	~3 fold	–	–	–
CN1c2c(nc(N)[nH]c2=O)NCC1CNc1ccc(C(=O)N[C@@H](CCC(=O)O)C(=O)O)cc1 (some centres unmarked) [5-methyltetrahydrofolate]	decreased	gradual decline	2.77 ± 2.11**	4.33 ± 0.95	0.82 ± 0.23	2.12 ± 0.2	8.49 ± 2.52	1.93 ± 0.62	0.92 ± 0.35	2.31 ± 0.79	Moderate hypertrophy of islets of the pancreas and moderate hyperplasia of beta cells	–	about 120 minutes	1.46 ± 0.18	–
Nc1nc(=O)c2c([nH]1)NCC(CNc1ccc(C(=O)N[C@@H](CCC(=O)O)C(=O)O)cc1)=N2 [dihydrofolate]	decreased	more gradual decline	5.43 ± 1.75*	2.72 ± 0.51	0.88 ± 0.07	1.74 ± 0.21	10.68 ± 1.46	2.09 ± 0.18	1.09 ± 0.10	2.88 ± 0.27	Severe hypertrophy of islets of the pancreas with hyperplasia of beta cells	–	–	1.64 ± .09	greater effect
